Usually IC50 stands for the concentration that gives 50% inhibition. High values mean a need for much substance, low ones inhibition by little substance.

The structures appear in SMILES notation. Several values for one entry are separate records, joined by “and”; a condition that tells them apart may be missing. Identical values can stand only once. Like-named read-outs stand apart in the source and are kept apart here.

The target of assay [1] is receptor tyrosine kinase c-Met (Homo sapiens, UniProt P08581). The experiment in a line: In vitro c-Met kinase inhibitory activity. Format: biochemical. As to conditions: two values per compound; for inhibition at 0.001 µM / inhibition at 0.01 µM / inhibition at 0.1 µM: read-out: c-Met Inhibitory rate (%). From the text:
Experimental Example 3: Study of In Vitro c-Met Kinase Inhibitory Activity
Since the screening results of 369 kinase profiles of compound DC621044 has shown that the compound has a certain inhibitory activity on c-Met. We further screened some compounds for their inhibitory activity on c-Met kinase.

Another assay deals with BaF3/TEL-AXL cells. The experiment in a line: Proliferation of BaF3/TEL-AXL cells. As to conditions: for inhibition at 0.001 µM / inhibition at 0.01 µM / inhibition at 0.1 µM: BaF3/TEL-AXL. Format: cell-based. From the text:
Experimental Example 4: Effect of the Compound on the Proliferation Effect of BaF3/TEL-AXL Cells
Based on the above-mentioned enzyme activity research results, we further explored the effect of the compound on cell proliferation mediated by receptor tyrosine kinase AXL.

Assay [2] deals with T1, receptor tyrosine kinase AXL (Homo sapiens, UniProt P30530).
T1 construct: 50 μL of AXL kinase domain recombinant protein diluted in reaction buffer was added to start the reaction; made in house; host or cells: insect cells (baculovirus expression system)
T1 sequence (P30530 536-807 limits assumed): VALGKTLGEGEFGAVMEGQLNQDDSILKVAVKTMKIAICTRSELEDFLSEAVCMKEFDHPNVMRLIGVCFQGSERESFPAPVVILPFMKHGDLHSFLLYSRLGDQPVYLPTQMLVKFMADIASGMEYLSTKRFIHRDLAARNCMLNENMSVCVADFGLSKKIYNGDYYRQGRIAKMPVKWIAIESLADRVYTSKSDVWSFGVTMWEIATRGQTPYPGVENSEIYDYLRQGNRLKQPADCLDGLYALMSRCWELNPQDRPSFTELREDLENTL
Briefly: Enzyme activity of receptor tyrosine kinase AXL (ELISA). The format is biochemical. As to conditions: for inhibition at 0.001 µM: 1 nM; for inhibition at 0.001 µM / inhibition at 0.01 µM / inhibition at 0.1 µM: read-out: AXL activity Inhibitory rate(%); for inhibition at 0.01 µM: 10 nM; for inhibition at 0.1 µM: 100 nM. As for the experimental part: Detection method: Enzyme-linked immunosorbent assay (ELISA)
Tested receptor tyrosine kinase: AXL
The full-wavelength microplate reader for experiment reading was a product of Molecular Device, model: SpectraMax 190; the experiment water was distilled water produced by Sinopharm Group.
Compound preparation: The compounds were centrifuged at 12,000 g for 5 min, and DMSO was added to prepare a 10^−2M stock solution, vortexed evenly and sonicated for 10 min for use, and stored at −40° C. During the test, the compound was diluted from the stock solution to 100 times the tested concentration with DMSO (the DMSO concentration in the system was 1%).
1. […] Discard the liquid from the well. The plate was washed and washed three times with T-PBS (0.1% Tween-20 in potassium-free PBS, 200 μL/well) for 5 minutes each time.
2. 49 μL of ATP solution diluted with reaction buffer (50 mM HEPES pH 7.4, 50 mM MgCl2, 0.5 mM MnCl2, 0.2 mM Na3VO4, 1 mM DTT) was added to each well, and […] of the tested compound was added to each well, and then 50 μL of AXL kinase domain recombinant protein diluted in reaction buffer was added to start the reaction. Two control wells without ATP were added in each experiment. (100 rpm) Reacted in 37° C. shaker for 1 hour. Discard the liquid from the well, and the plate was washed with T-PBS for three times.
3. […] Discard the liquid from the well, and the plate was washed with T-PBS for three times.
4. The horseradish peroxidase-labeled goat anti-mouse second antibody dilution (antibody diluted 1:2000 with BSA 5 mg/mL in T-PBS), 100 μL/well, and reacted in 37° C. shaker for 0.5 hours. Discard the liquid from the well, and the plate was washed with T-PBS for three times.
6. The reaction was quenched with 50 μL/well 2M […], and read at 490 nm using a tunable microplate reader VERSAmax.
The IC50 values were obtained by four-parameter regression analysis using the software supplied with the microplate reader.

Where [3] appears, read: 1 nM, two values per compound, 0.001 µM.
The mark [4] stands for this setting: 10 nM, two values per compound, 0.01 µM.
The mark [5] stands for this setting: 100 nM, two values per compound, 0.1 µM.
[6] abbreviates: 1 nM, two values per compound, read-out: BaF3/TEL-AXL proliferation Inhibitory rate (%).
The mark [7] stands for this setting: 10 nM, two values per compound, read-out: BaF3/TEL-AXL proliferation Inhibitory rate (%).
Setting [8] is: 100 nM, two values per compound, read-out: BaF3/TEL-AXL proliferation Inhibitory rate (%).
The mark [9] stands for this setting: concentration of 1 nM, read-out: inhibited the proliferation of BaF3/TEL-AXL cells.

receptor tyrosine kinase c-Met, sequence (P08581 25-1390): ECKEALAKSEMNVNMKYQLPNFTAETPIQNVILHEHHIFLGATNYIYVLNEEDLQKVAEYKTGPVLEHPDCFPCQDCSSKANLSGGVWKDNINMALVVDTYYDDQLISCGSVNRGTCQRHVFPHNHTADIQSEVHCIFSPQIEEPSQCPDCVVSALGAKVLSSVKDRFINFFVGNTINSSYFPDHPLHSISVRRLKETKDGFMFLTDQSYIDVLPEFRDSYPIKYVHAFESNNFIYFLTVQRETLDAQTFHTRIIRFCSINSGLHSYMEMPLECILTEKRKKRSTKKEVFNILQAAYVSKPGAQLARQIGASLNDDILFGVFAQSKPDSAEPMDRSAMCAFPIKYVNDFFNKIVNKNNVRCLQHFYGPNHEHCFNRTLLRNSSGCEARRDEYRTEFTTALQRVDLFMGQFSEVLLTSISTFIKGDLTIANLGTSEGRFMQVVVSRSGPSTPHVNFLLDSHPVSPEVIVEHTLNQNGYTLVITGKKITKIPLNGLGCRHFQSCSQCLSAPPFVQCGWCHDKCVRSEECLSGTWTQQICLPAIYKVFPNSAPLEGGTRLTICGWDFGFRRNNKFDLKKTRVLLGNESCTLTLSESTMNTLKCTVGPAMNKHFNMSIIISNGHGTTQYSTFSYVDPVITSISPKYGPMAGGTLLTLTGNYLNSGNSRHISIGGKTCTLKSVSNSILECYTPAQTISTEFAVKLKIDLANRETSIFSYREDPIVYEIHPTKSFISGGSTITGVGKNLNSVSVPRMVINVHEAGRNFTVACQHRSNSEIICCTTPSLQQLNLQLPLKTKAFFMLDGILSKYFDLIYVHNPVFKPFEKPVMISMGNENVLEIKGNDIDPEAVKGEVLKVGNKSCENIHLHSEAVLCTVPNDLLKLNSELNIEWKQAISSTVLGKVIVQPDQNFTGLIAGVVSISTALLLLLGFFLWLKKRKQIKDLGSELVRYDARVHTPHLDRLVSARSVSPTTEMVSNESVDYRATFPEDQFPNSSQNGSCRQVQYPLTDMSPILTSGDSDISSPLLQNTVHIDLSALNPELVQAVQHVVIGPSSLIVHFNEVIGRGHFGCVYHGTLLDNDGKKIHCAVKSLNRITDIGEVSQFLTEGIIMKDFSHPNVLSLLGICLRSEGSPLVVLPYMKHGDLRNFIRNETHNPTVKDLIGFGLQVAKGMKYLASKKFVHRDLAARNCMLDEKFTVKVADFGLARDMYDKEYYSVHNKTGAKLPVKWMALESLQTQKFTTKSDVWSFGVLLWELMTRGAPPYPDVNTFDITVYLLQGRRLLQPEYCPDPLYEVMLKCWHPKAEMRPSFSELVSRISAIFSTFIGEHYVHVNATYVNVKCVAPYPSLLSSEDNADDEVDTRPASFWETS

For the compound `COCCOc1cc2ncnc(Oc3ccc(NC(=O)c4c5n(n(-c6cc(F)ccc6F)c4=O)CCCC5)cc3F)c2cc1OCCOC` [DC621024, 1-(2,5-difluorophenyl)-N-(4-((6,7-bis(2-methoxyethoxy)quinazolin-4-yl)oxy)-3-fluorophenyl)-2-oxo-1,2,4,5,6,7-hexahydropyrazolo[1,5-a]pyridine-3-formamide], the “c-Met Inhibitory rate (%)” value in assay [1] (1 nM, 0.001 µM) was determined as 53.5%; in assay [1] (10 nM, 0.01 µM) it was 80.5%; in assay [1] (100 nM, 0.1 µM), 100%. The inhibition at 0.001 µM in assay [1] (1 nM) is 40.5%; with BaF3/TEL-AXL cells (setting [6]), 79.8%; in the assay with BaF3/TEL-AXL cells (setting [9]) it was greater than 70%; in assay [2], 29.9%. The inhibition at 0.01 µM in assay [1] (10 nM) was found to be 66.8%; in the assay with BaF3/TEL-AXL cells (setting [7]), 81%; in assay [2] it was 72.5%. The inhibition at 0.1 µM came out at 99.4% in assay [1] (100 nM), 85% in the assay on BaF3/TEL-AXL cells (setting [8]) and 100% in assay [2]. Besides, the “BaF3/TEL-AXL proliferation Inhibitory rate (%)” value came to 75.0% in the assay on BaF3/TEL-AXL cells (setting [3]), 80.5% in the assay with BaF3/TEL-AXL cells (setting [4]) and 81.3% in the assay with BaF3/TEL-AXL cells (setting [5]). In assay [2], the IC50 was found to be 8.7 ± 1 nM.

Regarding `COCCOc1cc2ncnc(Oc3ccc(NC(=O)c4c5n(n(-c6ccccc6)c4=O)CCCC5)c(F)c3)c2cc1OCCOC` [DC621051, N-(4-((6,7-bis(2-methoxyethoxy)quinazolin-4-yl)oxy)-2-fluorophenyl)-2-oxo-1-phenyl-1,2,4,5,6,7-hexahydropyrazolo[1,5-a]pyridine-3-formamide], the “c-Met Inhibitory rate (%)” value in assay [1] (1 nM, 0.001 µM) is recorded as 55.2%; in assay [1] (10 nM, 0.01 µM) it was 75.9%; in assay [1] (100 nM, 0.1 µM), 97.5%. In addition, the inhibition at 0.001 µM was 39.5% in assay [1] (1 nM), 84.7% in the assay on BaF3/TEL-AXL cells (setting [6]), greater than 70% in the assay with BaF3/TEL-AXL cells (setting [9]) and 8.2% in assay [2]. Further, the inhibition at 0.01 µM in assay [1] (10 nM) was found to be 62.4%; in the assay with BaF3/TEL-AXL cells (setting [7]) it was 85.8%; in assay [2] it was 54.2%. The inhibition at 0.1 µM in assay [1] (100 nM) was 93.9%; in the assay with BaF3/TEL-AXL cells (setting [8]), 86.7%; in assay [2], 100%. In addition, the “BaF3/TEL-AXL proliferation Inhibitory rate (%)” value in the assay with BaF3/TEL-AXL cells (setting [3]) amounted to 82.9%; in the assay on BaF3/TEL-AXL cells (setting [4]), 85.9%; in the assay on BaF3/TEL-AXL cells (setting [5]), 86.6%.

With `O=C(Nc1ccc(Oc2ncnc3cc4c(cc23)OCCOCCOCCO4)c(F)c1)c1c2n(n(-c3ccc(F)cc3)c1=O)CCCC2` [DC621067, N-(3-fluoro-4-((7,8,10,11,13,14-hexahydro-[1,4,7,10]tetraoxacyclododecane [2,3-g]quinazolin-4-yl)oxy)phenyl)-1-(4-fluorophenyl)-2-oxo-1,2,4,5,6,7-hexahydropyrazolo[1,5-a]pyridine-3-formamide], the “BaF3/TEL-AXL proliferation Inhibitory rate (%)” value in the assay with BaF3/TEL-AXL cells (setting [3]) is on record as 74.8%; in the assay with BaF3/TEL-AXL cells (setting [4]), 85.4%; with BaF3/TEL-AXL cells (setting [5]), 83.0%. Moreover, the inhibition at 0.001 µM with BaF3/TEL-AXL cells (setting [6]) turned out to be 80.6%; in assay [2] it was 8.6%. The results for the inhibition at 0.01 µM (in the assay with BaF3/TEL-AXL cells (setting [7]); in assay [2]) were 87.2% and 54.5%, respectively. Also, the values for the inhibition at 0.1 µM (with BaF3/TEL-AXL cells (setting [8]); in assay [2]) were 80.8% and 89%, respectively.

In the case of `O=C(Nc1ccc(Oc2ncnc3cc4c(cc23)OCCOCCOCCO4)c(Cl)c1)c1c2n(n(-c3ccc(F)cc3)c1=O)CCCC2` [DC621068, N-(3-chloro-4-((7,8,10,11,13,14-hexahydro-[1,4,7,10]tetraoxacyclododecane[2,3-g]quinazolin-4-yl)oxy)phenyl)-1-(4-fluorophenyl)-2-oxo-1,2,4,5,6,7-hexahydropyrazolo[1,5-a]pyridine-3-formamide], the “c-Met Inhibitory rate (%)” value in assay [1] (1 nM, 0.001 µM) was found to be 46.0%; in assay [1] (10 nM, 0.01 µM), 85.9%. In addition, the inhibition at 0.001 µM in assay [1] (1 nM) was found to be 34%; in assay [2], 16.5%. Further, the results for the inhibition at 0.01 µM in assay [1] (10 nM) and in assay [2] were 71.2% and 55.1%, respectively. Further, the inhibition at 0.1 µM in assay [1] (100 nM) is 100%; in assay [2], 85.8%.

For the compound `COCCOc1cc2ncnc(Oc3ccc(NC(=O)c4c5n(n(-c6ccccc6)c4=O)CCCC5)cc3C(F)(F)F)c2cc1OCCOC` [DC621072, N-(4-((6,7-bis(2-methoxyethoxy)quinazolin-4-yl)oxy)-3-trifluoromethylphenyl)-2-oxo-1-phenyl-1,2,4,5,6,7-hexahydropyrazolo[1,5-a]pyridine-3-formamide], the “c-Met Inhibitory rate (%)” value in assay [1] (1 nM, 0.001 µM) amounted to 34.3%; in assay [1] (10 nM, 0.01 µM) it was 68.4%; in assay [1] (100 nM, 0.1 µM), 96.6%. Besides, the inhibition at 0.001 µM in assay [1] (1 nM) was 24.1%; in assay [2], 34.8%. Further, the inhibition at 0.01 µM in assay [1] (10 nM) turned out to be 67.6%; in assay [2], 52.1%. Besides, the inhibition at 0.1 µM came out at 95.8% in assay [1] (100 nM) and 75.9% in assay [2].

As for `COCCOc1cc2ncnc(Oc3ccc(NC(=O)c4c5n(n(-c6cc(F)ccc6F)c4=O)CCCC5)cc3Cl)c2cc1OCCOC` [DC621080, 1-(2,5-difluorophenyl)-N-(4-((6,7-bis(2-methoxyethoxy)quinazolin-4-yl)oxy)-3-chlorophenyl)-2-oxo-1,2,4,5,6,7-hexahydropyrazolo[1,5-a]pyridine-3-formamide], the “c-Met Inhibitory rate (%)” value in assay [1] (10 nM, 0.01 µM) is 58.3%; in assay [1] (100 nM, 0.1 µM), 93.5%. In addition, the inhibition at 0.01 µM in assay [1] (10 nM) stood at 68.8%; in assay [2] it was 76.4%. In addition, the inhibition at 0.1 µM in assay [1] (100 nM) was found to be 97.1%; in assay [2], 100%. The inhibition at 0.001 µM in assay [2] is 35.5%.

On to `COCCOc1cc2ncnc(Oc3ccc(NC(=O)c4c5n(n(-c6ccccc6F)c4=O)CCCC5)cc3C(F)(F)F)c2cc1OCCOC` [DC621092, N-(4-((6,7-bis(2-methoxyethoxy)quinazolin-4-yl)oxy)-3-trifluoromethylphenyl)-1-(2-fluorophenyl)-2-oxo-1,2,4,5,6,7-hexahydropyrazolo[1,5-a]pyridine-3-formamide], for which the “c-Met Inhibitory rate (%)” value came out at 16.8% in assay [1] (1 nM, 0.001 µM); 53.1% in assay [1] (10 nM, 0.01 µM); 89.8% in assay [1] (100 nM, 0.1 µM). Moreover, the inhibition at 0.001 µM in assay [1] (1 nM) was 25.3%; in assay [2] it was 4.8%. Also, the inhibition at 0.01 µM in assay [1] (10 nM) was found to be 71.6%; in assay [2] it was 61%. Besides, the inhibition at 0.1 µM in assay [1] (100 nM) amounted to 94.2%; in assay [2], 78%.

Take `COCCOc1cc2ncnc(Oc3ccc(NC(=O)c4c5n(n(-c6ccc(F)cc6)c4=O)CCCC5)cc3Cl)c2cc1OCCOC` [DC621100, N-(4-((6,7-bis(2-methoxyethoxy)quinazolin-4-yl)oxy)-3-chlorophenyl)-1-(4-fluorophenyl)-2-oxo-1,2,4,5,6,7-hexahydropyrazolo[1,5-a]pyridine-3-formamide]: the “c-Met Inhibitory rate (%)” value in assay [1] (10 nM, 0.01 µM) is 63.7% and 38.0%. The “c-Met Inhibitory rate (%)” value in assay [1] (100 nM, 0.1 µM) was determined as 89.1%. Also, the inhibition at 0.1 µM in assay [1] (100 nM) worked out at 94.4%. In assay [2], the inhibition at 0.001 µM worked out at 18.9%, the inhibition at 0.01 µM stood at 59.2% and the inhibition at 0.1 µM is 93%.

(Values after patent US12497394B2, “Fused-cyclic pyrazolone formamide compound and preparation method therefor, pharmaceutical composition and use thereof” (SHANGHAI INSTITUTE OF MATERIA MEDICA, CHINESE ACADEMY OF …, priority 2018, dated 2025).)
